In US10413505B1, “Pharmaceutical compositions and methods of using the same” (priority 2017, dated 2019):

What was measured:
[1] = Literature disposition of cocaine (intravenous clearance, urinary elimination); assay type: in vivo, human; settings: humans
Description: In humans, cocaine is eliminated predominantly by metabolism, with little excreted unchanged in the urine. Only 1% to 10% of a dose of cocaine is eliminated unmetabolized in urine.

[2] = topical application with cotton pledgets; cited from earlier work
Sprague Dawley rats [3] = assay: Example 9 benzoylecgonine intranasal toxicity, Single-Dose Phase; assay type: in vivo, rat
Description: Benzoylecgonine in the vehicle (deionized water) was administered by intranasal instillation once to a group (Group 2) of Sprague Dawley rats at a dose level of 8.8 mg/kg. […] The dose volume was 0.22 mL/kg, divided between the 2 nares, for both groups. Groups 1 and 2 each consisted of 20 animals/sex. Following dose administration, 9 to 10 animals/sex/group were euthanized on Study Day 1; the remaining 10 animals/sex/group were euthanized following a 14-day nondosing (recovery) period. Criteria for evaluation included daily mortality observations, daily clinical observations, detailed physical observations, body weights, food consumption, clinical pathology (hematology, coagulation, serum chemistry, and urinalysis), organ weights, gross pathology, and microscopic examination of select tissues.
(§1) Organization of Test Groups, Dosage Levels, and Treatment Regimen—The vehicle and test article formulations were administered by intranasal instillation into each naris via a syringe equipped with stainless steel-shafted, stainless steel ball-tipped dosing cannula once (Single-Dose Phase) or once daily for 14 consecutive days (Repeat-Dose Phase), through the day prior to the primary necropsy. The same syringe and dosing cannula was used to administer the dose across both nares for a given animal on a given dosing day. The total dose volume administered per dose was split approximately equally across each naris, such that approximately half of the total dose volume was administered into one naris, and the remaining was administered into the other naris. Treatment administration across each naris for an individual animal occurred at approximately the same time. The dose volume for all groups was 0.22 mL/kg. Individual doses were based on the most recently recorded body weights. Adjusted doses became effective the day of collection of the weekly body weights. The first day of dosing was Study Day 0; the first week of dosing was Study Week 0.
(§2) All animals were observed twice daily, once in the morning and once in the afternoon, for mortality and moribundity. Animals found dead were examined macroscopically as soon as possible to ensure that tissues were not lost due to autolysis.
(§3) Clinical examinations were performed at the time of dose administration and 1 to 2 hours following dose administration. During the recovery period, the animals were observed once daily. The absence or presence of findings was recorded for individual animals at the scheduled intervals. For the Single-Dose Phase, detailed physical examinations were conducted on all animals within 4 days of receipt, on the day of randomization, and on Study Days 0, 1 (for animals scheduled for necropsy), 7, and 14. For the Repeat-Dose Phase, detailed physical examinations were conducted on all animals within 4 days of receipt, on the day of randomization, weekly (t 2 days) during the study period, and on the day of the scheduled necropsies (see Appendix 1—Study Protocol and Deviations). Daily observations during the recovery period were not necessary on days when detailed physical examinations were conducted.
(§4) Individual body weights were recorded within 4 days of receipt, on the day of randomization, Study Day 0 (prior to dosing), weekly (±2 days) during the study period, and on the day prior to the scheduled necropsies (nonfasted). Mean body weights and mean body weight changes were calculated for the corresponding intervals. Final body weights (fasted) were recorded on the day of the scheduled necropsies.
(§5) Cage food weights were recorded once weekly (±2 days) beginning following randomization and throughout the study period. Food consumption was calculated as g/animal/day for the corresponding body weight intervals.
(§6) Blood and urine samples for clinical pathology evaluations (hematology, coagulation, serum chemistry, and urinalysis) were collected from all animals assigned to the scheduled necropsies. […]

Sprague Dawley rats [4] = assay: Example 9 benzoylecgonine intranasal toxicity, Repeat-Dose Phase; assay type: in vivo, rat
Description: Benzoylecgonine in the vehicle was administered by intranasal instillation once daily for 14 days to a group (Group 2) of Sprague Dawley rats at a dosage level of 8.8 mg/kg/day. […] The dose volume was 0.22 mL/kg, divided between the 2 nares, for both groups. Groups 1 and 2 each consisted of 15 animals/sex. Following 14 days of dose administration, 10 animals/sex/group were euthanized; the remaining 5 animals/sex/group were euthanized following a 14-day nondosing (recovery) period. Criteria for evaluation included daily mortality observations, daily clinical observations, detailed physical observations, body weights, food consumption, clinical pathology (hematology, coagulation, serum chemistry, and urinalysis), organ weights, gross pathology, and microscopic examination of select tissues.
as §1, §2, §3, §4, §5, §6

[5] = Benzoylecgonine solubility in water; assay type: physicochemical; settings: deionized water vehicle
Description: Deionized water was chosen as the vehicle for this study to avoid any vehicle-related local toxicity. Benzoylecgonine is soluble in water up to approximately 40 mg/mL.

[6] = 8.8 mg/kg once, intranasal instillation
[7] = 8.8 mg/kg/day for 14 days, intranasal instillation

## COC(=O)[C@H]1[C@@H](OC(=O)c2ccccc2)C[C@@H]2CC[C@H]1N2C [Cocaine, cocaine, reference compound]
[1]
  CLr as percent of CL: less than 2%
  CLr as percent of human glomerular filtration rate (125 mL/min): less than 40%
[2]
  fraction absorbed from a cottonoid pledget: approximately 37%

## CN1[C@H]2CC[C@@H]1[C@@H](C(=O)O)[C@@H](OC(=O)c1ccccc1)C2 [BE, benzoylecgonine]
Sprague Dawley rats [3]; [6]
  body weights: unaffected
  clinical observations: no test article-related clinical observations
  food consumption: unaffected
  hematology and coagulation parameters: unaffected
  macroscopic examination at necropsy: No test article-related macroscopic findings
  organ weights: No test article-related organ weight findings
  serum chemistry parameters: unaffected
  survival: no test article-related effects on survival
  urinalysis parameters: unaffected
Sprague Dawley rats [3]; 8.8 mg/kg once, intranasal instillation, also after 14-day recovery
  microscopic examination (nasal cavity with turbinates): No test article-related microscopic findings
Sprague Dawley rats [3]; Single-Dose Phase, 40 mg/mL in deionized water, pH meter
  pH of the dosing formulation: 6.32
Sprague Dawley rats [4]; 8.8 mg/kg once or once daily for 14 days, intranasal instillation
  tolerability: well tolerated
Sprague Dawley rats [4]; [7]
  clinical observations: no test article-related clinical observations
  food consumption: unaffected
  hematology and coagulation parameters: unaffected
  macroscopic examination at necropsy: No test article-related macroscopic findings
  organ weights: No test article-related organ weight findings
  serum chemistry parameters: unaffected
  survival: All animals survived
  urinalysis parameters: unaffected
Sprague Dawley rats [4]; 8.8 mg/kg/day for 14 days, intranasal instillation, also after 14-day recovery
  microscopic examination (nasal cavity with turbinates): No test article-related microscopic findings
Sprague Dawley rats [4]; 8.8 mg/kg/day for 14 days, intranasal instillation, dosing period
  body weights: unaffected
Sprague Dawley rats [4]; Repeat-Dose Phase, 40 mg/mL in deionized water, pH meter
  pH of the dosing formulation: 6.32
Sprague Dawley rats [4]; intranasal instillation once or once daily for 14 days
  no-observed-effect level (NOEL): 8.8 mg/kg/day
[5]
  solubility in water: approximately 40 mg/mL
